{"source": "PubChem BioAssay (NCI)", "note": "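Growth conditions: 96-well plates. Treatment: test compound, 48 hours, 5 concentrations. Analysis: linear interpolation between bracketing concentrations; unreached endpoints set to highest concentration. GI50: concentration for 50% inhibition of growth. The concentration for full growth arrest is given as TGI.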"}
{"system": "SW-620 colon", "assay": "NCI tumour cell line growth inhibition, 48 h", "units": {"TGI": "µM", "GI50": "µM"}}
{"smiles": "Cc1cccc(C)c1NC(=O)C(Cc1c[nH]c2ccccc12)NC(=O)OCc1ccccc1", "note": "(stereo not drawn)", "TGI": "> 100"}
{"smiles": "S=C1NC2=C(CSC/C2=C\\c2cccc(Br)c2)C(c2cccc(Br)c2)N1", "note": "(stereo not drawn)", "TGI": "> 100"}
{"smiles": "Clc1ccc(-c2nnc3sc4nc5ccccc5c-4nn23)c(Cl)c1", "TGI": "> 100"}
{"smiles": "C=C(C(=O)OCC)C(=O)OCC", "TGI": "> 100"}
{"smiles": "N#CC(C#N)=C1SC(=Nc2ccccc2)C(=Nc2ccccc2)N1c1ccccc1", "TGI": 11.5}
{"smiles": "C[n+]1c(/C=C/c2c(O)ccc3ccccc23)ccc2ccccc21", "GI50": 6.06, "TGI": 16.1}
{"smiles": "O=C1c2cc(-c3ccccc3)cnc2S(=O)(=O)N1c1ccc(Br)cc1", "TGI": "> 100"}
{"smiles": "CC(=NNC(=S)Nc1ccccc1)c1cccc(C(C)=NNC(=S)Nc2ccccc2)n1", "TGI": "> 100"}
{"smiles": "CC(C)c1cc2c(c(O)c1O)[C@@]1(C(=O)O)CCCC(C)(C)[C@@H]1CC2", "TGI": "> 100"}
{"smiles": "COC1=CC(=O)c2c(c(-c3nc(C)cs3)cn2C)C1=O", "TGI": 94.6}
{"smiles": "CCCNc1ncnc2c1ncn2C", "TGI": "> 100"}
{"smiles": "CCOS(C)(=O)=O", "TGI": "> 100"}
{"smiles": "C=CCc1cc(-c2nc(=S)[nH][nH]2)ccc1N=NNc1ccc(C(=O)O)cc1", "TGI": "> 100"}
{"smiles": "CC(C)SC(=S)Sc1c(Cl)c(Cl)nc(Cl)c1Cl", "TGI": 15.9}
{"smiles": "O=C(O)CN1CCNCCN(CC(=O)O)CCN(CC(=O)O)CCNCC1", "TGI": "> 100"}
{"smiles": "CCCCCCCCCCCC[S+](C)C", "TGI": 30.2}
{"smiles": "CC(C)(C)[Si](C)(C)OCC1OC(n2ccc(=O)[nH]c2=O)C(O[Si](C)(C)C(C)(C)C)/C1=C/C#N", "note": "(stereo not drawn)", "TGI": "> 100"}
{"system": "TK-10 renal", "assay": "NCI tumour cell line growth inhibition, 48 h", "units": {"TGI": "µM", "GI50": "µM"}}
{"smiles": "COc1ccc(N2C(=O)CC(=O)N(NC(=O)C(C)Oc3ccccc3C)C2=S)cc1", "note": "(stereo not drawn)", "TGI": "> 100"}
{"smiles": "O=C1OC(C2Cc3ccc4ccccc4c3C2=O)c2ccccc21", "note": "(stereo not drawn)", "TGI": "> 100"}
{"smiles": "C/C(=N\\N=C1/C(=O)OC(c2ccccc2)=C1C(=O)c1ccccc1)c1ccc([N+](=O)[O-])cc1", "TGI": "> 100"}
{"smiles": "O=S(=O)(O)C(CO)c1ccccc1", "note": "(stereo not drawn) (tested in a mixture with another compound)", "TGI": "> 100"}
{"smiles": "O=C1c2ccccc2C(=O)N1n1c(Cc2ccc([N+](=O)[O-])cc2)n[nH]c1=O", "TGI": "> 100"}
{"smiles": "Cc1nn(-c2ccccc2)c2c1C(c1cc3ccccc3nc1Cl)NC(=O)N2", "note": "(stereo not drawn)", "TGI": "> 100"}
{"smiles": "COc1ccc(C2OC(c3ccncc3)=NN2C)cc1F", "note": "(stereo not drawn)", "TGI": "> 100"}
{"smiles": "Cc1cc(/N=C/c2ccc(N(C)C)cc2)n(-c2ccccc2)n1", "TGI": "> 100"}
{"smiles": "O=C(/C=C/c1ccccc1)Oc1ccc(C(=O)/C=C/c2ccccc2)cc1", "TGI": 20.8}
{"smiles": "COC(=O)C(Cc1ccc2c(c1)CCC2)Cc1ccc2c(c1)CCC2", "TGI": "> 100"}
{"smiles": "C/C(C[n+]1ccccc1)=N\\N=C(N)N", "TGI": "> 100"}
{"smiles": "NS(=O)(=O)c1ccc(NC(=S)/N=C/C2=C(O)c3ccccc3C2=O)cc1", "TGI": "> 100"}
{"smiles": "O=C1NC2c3c(I)sc(I)c3C(O)C2O1", "note": "(stereo not drawn)", "TGI": "> 100"}
{"smiles": "Cc1nc(C)c(C(=O)NNC(=O)C[N+](C)(C)C)cc1C(=O)NNC(=O)C[N+](C)(C)C", "TGI": "> 100"}
{"smiles": "NCCCN1c2ccccc2Sc2ccc(Cl)cc21", "TGI": "> 10"}
{"smiles": "CCOC(=O)c1cccc(N=Nc2nc[nH]c2/C=C/C(=O)OC)c1", "TGI": "> 100"}
{"smiles": "O=C(O)CN1CCN2CCCCCN(CC1)CCN(CC(=O)O)CC2", "TGI": "> 100"}
{"smiles": "Cc1cccc(C)c1NC(=O)C(Cc1c[nH]c2ccccc12)NC(=O)OCc1ccccc1", "note": "(stereo not drawn)", "TGI": 43.7}
{"smiles": "S=C1NC2=C(CSC/C2=C\\c2cccc(Br)c2)C(c2cccc(Br)c2)N1", "note": "(stereo not drawn)", "TGI": "> 100"}
{"smiles": "Clc1ccc(-c2nnc3sc4nc5ccccc5c-4nn23)c(Cl)c1", "TGI": "> 100"}
{"smiles": "C=C(C(=O)OCC)C(=O)OCC", "TGI": "> 100"}
{"smiles": "N#CC(C#N)=C1SC(=Nc2ccccc2)C(=Nc2ccccc2)N1c1ccccc1", "TGI": "> 100"}
{"smiles": "C[n+]1c(/C=C/c2c(O)ccc3ccccc23)ccc2ccccc21", "GI50": 5.49, "TGI": 11.7}
{"smiles": "O=C1c2cc(-c3ccccc3)cnc2S(=O)(=O)N1c1ccc(Br)cc1", "TGI": "> 100"}
{"smiles": "CC(=NNC(=S)Nc1ccccc1)c1cccc(C(C)=NNC(=S)Nc2ccccc2)n1", "TGI": "> 100"}
{"smiles": "CC(C)c1cc2c(c(O)c1O)[C@@]1(C(=O)O)CCCC(C)(C)[C@@H]1CC2", "TGI": 31.5}
{"smiles": "COC1=CC(=O)c2c(c(-c3nc(C)cs3)cn2C)C1=O", "TGI": "> 100"}
{"smiles": "CCCNc1ncnc2c1ncn2C", "TGI": "> 100"}
{"smiles": "CCOS(C)(=O)=O", "TGI": "> 100"}
{"smiles": "C=CCc1cc(-c2nc(=S)[nH][nH]2)ccc1N=NNc1ccc(C(=O)O)cc1", "TGI": "> 100"}
{"smiles": "CC(C)SC(=S)Sc1c(Cl)c(Cl)nc(Cl)c1Cl", "TGI": 18.4}
{"smiles": "O=C(O)CN1CCNCCN(CC(=O)O)CCN(CC(=O)O)CCNCC1", "TGI": "> 100"}
{"smiles": "CCCCCCCCCCCC[S+](C)C", "TGI": 18.3}
{"smiles": "CC(C)(C)[Si](C)(C)OCC1OC(n2ccc(=O)[nH]c2=O)C(O[Si](C)(C)C(C)(C)C)/C1=C/C#N", "note": "(stereo not drawn)", "TGI": "> 44"}
{"system": "SF-295 CNS", "assay": "NCI tumour cell line growth inhibition, 48 h", "units": {"TGI": "µM", "GI50": "µM"}}
{"smiles": "COc1ccc(N2C(=O)CC(=O)N(NC(=O)C(C)Oc3ccccc3C)C2=S)cc1", "note": "(stereo not drawn)", "TGI": "> 100"}
{"smiles": "O=C1OC(C2Cc3ccc4ccccc4c3C2=O)c2ccccc21", "note": "(stereo not drawn)", "TGI": "> 100"}
{"smiles": "C/C(=N\\N=C1/C(=O)OC(c2ccccc2)=C1C(=O)c1ccccc1)c1ccc([N+](=O)[O-])cc1", "TGI": "> 100"}
{"smiles": "O=S(=O)(O)C(CO)c1ccccc1", "note": "(stereo not drawn) (tested in a mixture with another compound)", "TGI": "> 100"}
{"smiles": "O=C1c2ccccc2C(=O)N1n1c(Cc2ccc([N+](=O)[O-])cc2)n[nH]c1=O", "TGI": "> 100"}
{"smiles": "Cc1nn(-c2ccccc2)c2c1C(c1cc3ccccc3nc1Cl)NC(=O)N2", "note": "(stereo not drawn)", "TGI": 55.8}
{"smiles": "COc1ccc(C2OC(c3ccncc3)=NN2C)cc1F", "note": "(stereo not drawn)", "TGI": "> 100"}
{"smiles": "Cc1cc(/N=C/c2ccc(N(C)C)cc2)n(-c2ccccc2)n1", "TGI": "> 100"}
{"smiles": "O=C(/C=C/c1ccccc1)Oc1ccc(C(=O)/C=C/c2ccccc2)cc1", "TGI": 24.4}
{"smiles": "COC(=O)C(Cc1ccc2c(c1)CCC2)Cc1ccc2c(c1)CCC2", "TGI": "> 100"}
{"smiles": "C/C(C[n+]1ccccc1)=N\\N=C(N)N", "TGI": "> 100"}
{"smiles": "NS(=O)(=O)c1ccc(NC(=S)/N=C/C2=C(O)c3ccccc3C2=O)cc1", "TGI": "> 100"}
{"smiles": "O=C1NC2c3c(I)sc(I)c3C(O)C2O1", "note": "(stereo not drawn)", "TGI": "> 100"}
{"smiles": "Cc1nc(C)c(C(=O)NNC(=O)C[N+](C)(C)C)cc1C(=O)NNC(=O)C[N+](C)(C)C", "TGI": "> 100"}
{"smiles": "NCCCN1c2ccccc2Sc2ccc(Cl)cc21", "TGI": "> 10"}
{"smiles": "CCOC(=O)c1cccc(N=Nc2nc[nH]c2/C=C/C(=O)OC)c1", "TGI": "> 100"}
{"smiles": "O=C(O)CN1CCN2CCCCCN(CC1)CCN(CC(=O)O)CC2", "TGI": "> 100"}
{"smiles": "Cc1cccc(C)c1NC(=O)C(Cc1c[nH]c2ccccc12)NC(=O)OCc1ccccc1", "note": "(stereo not drawn)", "TGI": 38.9}
{"smiles": "S=C1NC2=C(CSC/C2=C\\c2cccc(Br)c2)C(c2cccc(Br)c2)N1", "note": "(stereo not drawn)", "TGI": "> 100"}
{"smiles": "Clc1ccc(-c2nnc3sc4nc5ccccc5c-4nn23)c(Cl)c1", "TGI": "> 100"}
{"smiles": "C=C(C(=O)OCC)C(=O)OCC", "TGI": "> 100"}
{"smiles": "N#CC(C#N)=C1SC(=Nc2ccccc2)C(=Nc2ccccc2)N1c1ccccc1", "TGI": "> 76.6"}
{"smiles": "C[n+]1c(/C=C/c2c(O)ccc3ccccc23)ccc2ccccc21", "GI50": 5.82, "TGI": 13.5}
{"smiles": "O=C1c2cc(-c3ccccc3)cnc2S(=O)(=O)N1c1ccc(Br)cc1", "TGI": 38.5}
{"smiles": "CC(=NNC(=S)Nc1ccccc1)c1cccc(C(C)=NNC(=S)Nc2ccccc2)n1", "TGI": "> 42"}
{"smiles": "CC(C)c1cc2c(c(O)c1O)[C@@]1(C(=O)O)CCCC(C)(C)[C@@H]1CC2", "TGI": 68.5}
{"smiles": "COC1=CC(=O)c2c(c(-c3nc(C)cs3)cn2C)C1=O", "TGI": 9.72}
{"smiles": "CCCNc1ncnc2c1ncn2C", "TGI": "> 100"}
{"smiles": "CCOS(C)(=O)=O", "TGI": "> 100"}
{"smiles": "C=CCc1cc(-c2nc(=S)[nH][nH]2)ccc1N=NNc1ccc(C(=O)O)cc1", "TGI": "> 100"}
{"smiles": "CC(C)SC(=S)Sc1c(Cl)c(Cl)nc(Cl)c1Cl", "TGI": 30.5}
{"smiles": "O=C(O)CN1CCNCCN(CC(=O)O)CCN(CC(=O)O)CCNCC1", "TGI": "> 100"}
{"smiles": "CCCCCCCCCCCC[S+](C)C", "TGI": 16.6}
{"smiles": "CC(C)(C)[Si](C)(C)OCC1OC(n2ccc(=O)[nH]c2=O)C(O[Si](C)(C)C(C)(C)C)/C1=C/C#N", "note": "(stereo not drawn)", "TGI": "> 81.4"}
